US20110039763A1, “TARGETED ANTIMICROBIAL MOIETIES” (C3 JIAN, INC., priority 2009, published 2011)
“Also recorded” adds a separate entry of the source.

Assays:
microorganisms [1] = test: Peptide activities: targeting/binding, antimicrobial, growth or phenotype altering (Tables 7, 8); assay type: cell-based; conditions: peptides having multiple activities
microorganisms [2] = test: Morphology, biofilm and growth disrupting peptides (Table 5); assay type: cell-based; design: key: A: Peptide aggregates; B: Less hyphal formation; Clumps; Diffuse clumps and small polyps; F: Diffuse growth; H: Thin; I: Growth inhibition; Microcolony formation; Rippled; Small polyps; Thick; W: Halo formation on top, microlonies on bottom
From the text: In certain embodiments peptides that induce alterations in phenotype or other biological activities can also be used as antimicrobial effector moieties.

microorganisms [3] = test: Targeting peptide binding to target microorganisms (Tables 3, 10, 12); conditions: microorganism(s) the targeting peptide binds; binding in aqueous buffers varied with peptide solubility, preferably 1x PBS

| Substance | Activities (microorganisms [1]) | Organism, effect (microorganisms [2]; B. subtilis) | Target(s) (microorganisms [3]) | Organism, effect (microorganisms [2]; C. jejuni) | Organism, effect (microorganisms [2]; MRSA) | Organism, effect (microorganisms [2]; S. epidermidis) | Organism, effect (microorganisms [2]; S. pneumoniae) | Organism, effect (microorganisms [2]; C. jeikeium) | Organism, effect (microorganisms [2]; M. luteus) |
| --- | --- | --- | --- | --- | --- | --- | --- | --- | --- |
| PF-554: peptide having multiple activities (AKNFLTRTAEEIGEQAVREGNINGP; Peptide with targeting and/or antimicrobial activity) | G B | B. subtilis (D) | S. pneumoniae |  |  |  |  |  |  |
| PF-557: peptide having multiple activities (AANKAREQAAAEAKRKAEEQAR; Peptide with targeting and/or antimicrobial activity) | G B | B. subtilis (D) | S. pneumoniae |  |  |  |  |  |  |
| PF-558: peptide having multiple activities (ADAPPPLIVRYS; Peptide with targeting and/or antimicrobial activity) | G B | B. subtilis (D) | S. epidermidis; also recorded: E. coli; also recorded: C. albicans; also recorded: C. jeikeium; also recorded: C. jejuni | C. jejuni (H) | MRSA (C) | S. epidermidis (M) | S. pneumoniae (R) |  |  |
| PF-559: peptide having multiple activities (SRPGKPGGVSIDVSRDRQDILSNYP; Peptide with targeting and/or antimicrobial activity) | G B | B. subtilis (C) | S. epidermidis; also recorded: M. luteus; also recorded: C. albicans; also recorded: C. jeikeium; also recorded: C. jejuni | C. jejuni (A) |  |  |  |  |  |
| PF-560: peptide having multiple activities (FGNPFRGFTLAMEADFKKRK; Peptide with targeting and/or antimicrobial activity) | G B | B. subtilis (D) | S. epidermidis; also recorded: M. luteus; also recorded: E. coli; also recorded: S. pneumoniae; also recorded: C. jeikeium; also recorded: C. jejuni | C. jejuni (A) | MRSA (C) |  | S. pneumoniae (R) |  |  |
| PF-563: peptide having multiple activities (RPELDNELDVVQNSASLDKLQASYN; Peptide with targeting and/or antimicrobial activity) | G B | B. subtilis (D) | S. epidermidis; also recorded: M. luteus; also recorded: C. jeikeium | C. jejuni (H) |  |  | S. pneumoniae (H) |  |  |
| PF-564: peptide having multiple activities (TIILNDQINSLQERLNKLNAETDRR; Peptide with targeting and/or antimicrobial activity) | G B | B. subtilis (D) | S. epidermidis; also recorded: C. albicans; also recorded: S. pneumoniae; also recorded: C. jeikeium | C. jejuni (R) | MRSA (C) |  |  | C. jeikeium (R) |  |
| PF-566: peptide having multiple activities (EAQQVTQQLGADFNAITTPTATKV; Peptide with targeting and/or antimicrobial activity) | G B | B. subtilis (C) | P. mirabilis; also recorded: S. pneumoniae | C. jejuni (D) | MRSA (M) |  | S. pneumoniae (D) | C. jeikeium (C) | M. luteus (D) |
| PF-567: peptide having multiple activities (QQRVKAVDASLSQVSTQVSGAVASA; Peptide with targeting and/or antimicrobial activity) | G B |  | S. epidermidis and P. aeruginosa and C. albicans and MRSA and S. pneumoniae and C. jeikeium | C. jejuni (D) | MRSA (D) |  | S. pneumoniae (D) | C. jeikeium (C) | M. luteus (C) |
